Reference: patent US8633184B2, “Benzoazepin-oxy-acetic acid derivatives as PPAR-delta agonists used for the increase of HDL-C, lower LDL-C and lower cholesterol” (Janssen Pharmaceutica N.V., priority 2006, dated 2014)
Where “and” joins values, the source holds several entries; their conditions need not be identical. Equal values may be shown once.

What was measured:
Assay type in all cases: cell-based
Conditions in all cases: 18-24 hrs
PPARα = molecular target: T1, PPARα (Homo sapiens, UniProt Q07869); test: Transfection assay, GAL4-PPARα LBD luciferase reporter in HEK293 cells
T1 construct: expressed in transfected cells; host or cells: HEK293
T1 sequence (Q07869 239-466 limits assumed): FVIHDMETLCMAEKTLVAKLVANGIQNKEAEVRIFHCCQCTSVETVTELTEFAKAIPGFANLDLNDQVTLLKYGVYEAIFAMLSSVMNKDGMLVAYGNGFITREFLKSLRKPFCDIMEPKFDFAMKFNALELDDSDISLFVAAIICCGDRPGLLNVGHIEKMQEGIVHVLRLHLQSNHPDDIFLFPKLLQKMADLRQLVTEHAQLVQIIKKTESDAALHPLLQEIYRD
Protocol: (§1) HEK293 cells were grown in DMEM/F12 medium supplemented with 10% FBS and glutamine (Invitrogen) and incubated in a 5% CO2 incubator at 37° C. The cells were co-transfected using DMRIE-C reagent (Invitrogen) in serum free medium (Opti-MEM, Invitrogen) with two mammalian expression plasmids, one containing the DNA sequence coding for the ligand binding domains of either PPARα, γ or δ fused to the yeast GAL4 DNA binding domain and the other containing the promoter sequence of the yeast GAL4 (UAS) fused to the firefly luciferase cDNA reporter. The next day, the medium was changed to DMEM/F12 medium supplemented with 5% charcoal treated serum (Hyclone) and glutamine. After 6 hrs the cells were trypsinized and seeded at a density of 50,000 cells/well into 96 well plates and incubated overnight as above. The cells were then treated with test compounds or vehicle and incubated for 18-24 hrs as above. Luciferase reporter activity was measured using the Steady-Glo Luciferase Assay Kit from Promega. DMRIE-C Reagent was purchased from GIBCO Cat. No. 10459-014. OPTI-MEM I Reduced Serum Medium was purchased from GIBCO (Cat. No. 31985). Steady-Glo Luciferase Assay Kit was purchased from Promega (Part #E254B).
(§2) A variety of example compounds have been made and tested, with a range of in vitro results. Below, in Table 2, are representative compounds and data; in some cases, where multiple EC50's are shown, multiple measurements were taken. Naturally, different compounds in Formula (I) may have not activities identical to any one compound below.

PPARγ = molecular target: T2, PPARγ (Homo sapiens, UniProt P37231); test: Transfection assay, GAL4-PPARγ LBD luciferase reporter in HEK293 cells
T2 construct: expressed in transfected cells; host or cells: HEK293
T2 sequence (P37231 238-503 limits assumed): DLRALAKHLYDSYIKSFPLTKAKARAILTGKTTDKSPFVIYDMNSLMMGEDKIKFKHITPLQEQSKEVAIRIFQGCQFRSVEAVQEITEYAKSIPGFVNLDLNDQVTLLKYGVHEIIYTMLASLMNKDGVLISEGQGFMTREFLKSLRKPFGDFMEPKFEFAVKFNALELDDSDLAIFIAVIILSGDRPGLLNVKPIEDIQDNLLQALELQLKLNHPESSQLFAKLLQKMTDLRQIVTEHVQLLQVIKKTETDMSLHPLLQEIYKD
Protocol: as §1, §2

PPARδ = molecular target: T3, PPARδ (Homo sapiens, UniProt Q03181); test: Transfection assay, GAL4-PPARδ LBD luciferase reporter in HEK293 cells
T3 construct: expressed in transfected cells; host or cells: HEK293
T3 sequence (Q03181 211-439 limits assumed): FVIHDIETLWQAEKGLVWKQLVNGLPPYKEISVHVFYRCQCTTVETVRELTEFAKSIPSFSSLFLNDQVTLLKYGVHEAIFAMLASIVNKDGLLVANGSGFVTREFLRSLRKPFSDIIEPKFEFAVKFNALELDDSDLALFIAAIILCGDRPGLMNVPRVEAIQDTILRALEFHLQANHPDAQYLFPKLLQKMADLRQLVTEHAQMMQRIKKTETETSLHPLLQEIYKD
Protocol: as §1, §2

Compound | EC50 (PPARα) | EC50 (PPARγ) | EC50 (PPARδ)
O=C(O)COc1ccc2c(c1)CCN(Cc1ccc(-c3ccc(C(F)(F)F)cc3)cc1)CC2 [compound 40] | > 3000 nM | > 3000 nM | > 1000 nM
CC(C)(Oc1ccc2c(c1)CCN(Cc1cc(-c3ccc(C(F)(F)F)cc3)on1)CC2)C(=O)O [compound 12] | > 1000 nM | > 3000 nM | 122 nM
CC(c1ccc(-c2ccc(C(F)(F)F)cc2)o1)N1CCc2ccc(OCC(=O)O)cc2CC1 (stereo not drawn) [compound 28] | > 3000 nM | > 3000 nM | < 3 nM
O=C(O)COc1ccc2c(c1)CCN(Cc1cc(-c3ccc(C(F)(F)F)cc3)ns1)CC2 [compound 1] | 546 nM and 758 nM | > 3000 nM | 34.1 nM and 66.6 nM
CC(C)(Oc1ccc2c(c1)CCN(Cc1ccc(-c3ccc(C(F)(F)F)cc3)o1)CC2)C(=O)O [compound 10] | > 3000 nM | > 3000 nM | 53 nM and 87.7 nM
CC(c1ccc(-c2ccc(C(F)(F)F)cc2)s1)N1CCc2ccc(OCC(=O)O)cc2CC1 (single isomer, unassigned) [27b] | > 3000 nM | > 3000 nM | 12.6 nM and 13.9 nM
O=C(O)COc1ccc2c(c1)CCN(Cc1cnc(-c3ccc(C(F)(F)F)cc3)s1)CC2 [compound 24] | > 1000 nM | > 3000 nM | 27.1 nM and 22 nM
O=C(O)COc1ccc2c(c1)CCN(Cc1cnn(-c3ccc(C(F)(F)F)cc3)c1)CC2 [compound 20] | > 3000 nM | > 3000 nM | > 1000 nM
O=C(O)COc1ccc2c(c1)CCN(Cc1cccc(-c3ccc(C(F)(F)F)cc3)c1)CC2 [compound 47] | > 3000 nM | > 3000 nM | > 3000 nM
Cc1c(-c2ccc(C(F)(F)F)cc2)csc1CN1CCc2ccc(OC(C)(C)C(=O)O)cc2CC1 [compound 16] | > 3000 nM | > 3000 nM | 375 nM
Cc1nc(-c2ccc(C(F)(F)F)cc2)sc1CN1CCc2ccc(OC(C)(C)C(=O)O)cc2CC1 [compound 6] | > 1000 nM | > 3000 nM | 243 nM
CC(c1ccc(-c2ccc(C(F)(F)F)cc2)o1)N1CCc2ccc(OCC(=O)O)cc2CC1 (single isomer, unassigned) [28a] | > 3000 nM | > 3000 nM | 1.8 nM
O=C(O)COc1ccc2c(c1)CCN(Cc1ccc(-c3ccc(Cl)cc3Cl)s1)CC2 [compound 31] | > 3000 nM | > 3000 nM | 237 nM
O=C(O)COc1ccc2c(c1)CCN(Cc1ccc(-c3ccc(C(F)(F)F)cc3)nc1)CC2 [compound 46] | > 1000 nM | > 3000 nM | 312 nM
O=C(O)C1(Oc2ccc3c(c2)CCN(Cc2ccc(-c4ccc(C(F)(F)F)cc4)o2)CC3)CC1 [compound 38] | 31 nM | > 1000 nM | 18 nM
CC1CN(Cc2ccc(-c3ccc(C(F)(F)F)cc3)o2)CCc2ccc(OCC(=O)O)cc21 (stereo not drawn) [compound 26] | > 3000 nM | > 3000 nM | 15.8 nM
O=C(O)COc1ccc2c(c1)CCN(Cc1cc(-c3ccc(C(F)(F)F)cc3)on1)CC2 [compound 11] | > 1000 nM | > 3000 nM | 136 nM
O=C(O)COc1ccc2c(c1)CCN(Cc1csc(-c3ccc(C(F)(F)F)cc3)n1)CC2 [compound 17] | > 3000 nM | > 3000 nM | 439 nM
CC(C)(Oc1ccc2c(c1)CCN(Cc1cc(-c3ccc(C(F)(F)F)cc3)ns1)CC2)C(=O)O [compound 2] | > 3000 nM | > 3000 nM | 162 nM
O=C(O)COc1ccc2c(c1)CCN(Cc1ccc(-c3ccc(C(F)(F)F)cc3)o1)CC2 [compound 9] | > 3000 nM | > 3000 nM | 74.2 nM and 70.9 nM
CC(c1ccc(-c2ccc(C(F)(F)F)cc2)o1)N1CCc2ccc(OCC(=O)O)cc2CC1 (single isomer, unassigned) [28b] | > 3000 nM | > 3000 nM | 5.4 nM and 9.8 nM
CC(C)(Oc1ccc2c(c1)CCN(Cc1ccc(-c3ccc(C(F)(F)F)cc3)s1)CC2)C(=O)O [compound 8] | > 1000 nM | > 3000 nM | 85.9 nM and 123 nM
